Experimental data reported in US20110250262A1, “METHOD FOR PRODUCING LIPOSOME AND METHOD FOR DISSOLVING CHOLESTEROL” (BIOMEDCORE, INC., priority 2008, published 2011).

Test: Visual examination of dissolution of phospholipid and cholesterol in sucrose solution containing t-BuOH during cooling from 80° C.
Assay type: physicochemical
Details: cooled from 80° C.
Method: […] […] The solution was in the white opaque state at 80° C. Next, the temperature control of the water bath was off while still stirred, so that the solution was slowly cooled down at room temperature. It took about 90 min for the temperature of the water bath to be cooled from 80° C. to 35° C. The solution, which was in the white opaque state at 80° C., turned into a slightly pale transparent state around at 72° C., and the transparency persisted until the temperature fell to around 62° C. From around 62° C., the solution started to become white opaque again, turning into a completely white opaque state at 58° C. This change of state was reversible: the similar change of state was observed when the temperature was gradually raised from room temperature.
This state persisted until the temperature fell down to about 35° C., where the solution suddenly changed into a white opaque state.

[1] = 200 mg cholesterol with 380 mg DPPC in 20 mL 10 wt/vol % sucrose solution + 4.25 mL t-BuOH

| Lower temperature of the transparent (dissolved) state of the solution [1] | Upper temperature of the transparent (dissolved) state of the solution [1] [°C] | SMILES | State of the aqueous solution (dissolution), cholesterol alone (40 mg cholesterol alone in 4 mL 10 wt/vol % sucrose solution + 0.85 mL t-BuOH) | State of the aqueous solution (dissolution), DPPC alone (75.9 mg DPPC alone in 4 mL 10 wt/vol % sucrose solution + 0.85 mL t-BuOH) |
| --- | --- | --- | --- | --- |
| around 62 °C | ~72 | CC(C)CCC[C@@H](C)[C@H]1CC[C@H]2[C@@H]3CC=C4C[C@@H](O)CC[C@]4(C)[C@H]3CC[C@]12C [cholesterol, Cholesterol] | the solution never became transparent at any temperature | – |
| – | – | CCCCCCCCCCCCCCCC(=O)OC[C@H](COP(=O)([O-])OCC[N+](C)(C)C)OC(=O)CCCCCCCCCCCCCCC [DPPC, L-α-dipalmitoylphosphatidylcholine] | – | transparent state between 80 °C and 50 °C |
